Measured values published in PubChem BioAssay (NCI).
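How tested: cells in 96-well plates exposed to compound for 48 hours at five concentrations. At the TGI there is no net growth.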

Assays:
Assay in all cases: growth of human tumour cells (NCI), 48 h
[1] = test system: 786-0 renal
[2] = test system: A498 renal
[3] = test system: A549 NSCLC
[4] = test system: ACHN renal
[5] = test system: BT-549 breast
[6] = test system: CAKI-1 renal
[7] = test system: CCRF-CEM leukemia
[8] = test system: COLO 205 colon
[9] = test system: DU-145 prostate
[10] = test system: EKVX NSCLC
[11] = test system: HCC-2998 colon
[12] = test system: HCT-116 colon
[13] = test system: HCT-15 colon
[14] = test system: HL-60(TB) leukemia
[15] = test system: HOP-62 NSCLC
[16] = test system: HOP-92 NSCLC
[17] = test system: HS 578T breast
[18] = test system: HT29 colon
[19] = test system: IGROV1 ovarian
[20] = test system: K-562 leukemia
[21] = test system: KM12 colon
[22] = test system: LOX IMVI melanoma
[23] = test system: M14 melanoma
[24] = test system: MALME-3M melanoma
[25] = test system: MCF7 breast
[26] = test system: MDA-MB-231 breast
[27] = test system: MDA-MB-435
[28] = test system: MDA-N
[29] = test system: MOLT-4 leukemia
[30] = test system: NCI-H226 lung
[31] = test system: NCI-H23 lung
[32] = test system: NCI-H460 lung
[33] = test system: NCI-H522 lung
[34] = test system: NCI/ADR-RES ovarian
[35] = test system: OVCAR-3 ovarian
[36] = test system: OVCAR-4 ovarian
[37] = test system: OVCAR-5 ovarian
[38] = test system: OVCAR-8 ovarian
[39] = test system: PC-3 prostate
[40] = test system: RPMI-8226 leukemia
[41] = test system: RXF 393 renal
[42] = test system: SF-268 CNS
[43] = test system: SF-295 CNS
[44] = test system: SF-539 CNS
[45] = test system: SK-MEL-2 melanoma
[46] = test system: SK-MEL-28 melanoma
[47] = test system: SK-MEL-5 melanoma
[48] = test system: SK-OV-3 ovarian
[49] = test system: SN12C renal
[50] = test system: SNB-19 CNS
[51] = test system: SNB-75 CNS
[52] = test system: SW-620 colon
[53] = test system: T-47D breast
[54] = test system: TK-10 renal
[55] = test system: U251 CNS
[56] = test system: UACC-257 melanoma
[57] = test system: UACC-62 melanoma
[58] = test system: UO-31 renal
[59] = test system: SR leukemia

`O=C1Nc2noc(=O)nc2NO1` was tested. Which TGI [1] did it give?
Its TGI is over 200 µM.

And the TGI [2]?
Its TGI is over 200 µM.

What about the TGI [3] of the same molecule?
The TGI was over 200 µM.

What about the TGI [4] of the same molecule?
The TGI was over 200 µM.

And the TGI [5]?
Its TGI is over 200 µM.

What about the TGI [6] of the same molecule?
Its TGI is over 200 µM.

What about the TGI [7] of the same molecule?
The TGI was over 200 µM.

And the TGI [8]?
The TGI was over 200 µM.

And the TGI [9]?
Its TGI is over 200 µM.

What about the TGI [10] of the same molecule?
The TGI was over 200 µM.

And the TGI [11]?
Its TGI is over 200 µM.

What about the TGI [12] of the same molecule?
The TGI was over 200 µM.

What about the TGI [13] of the same molecule?
The TGI was over 200 µM.

What about the TGI [14] of the same molecule?
Its TGI is over 200 µM.

And the TGI [15]?
The TGI was over 200 µM.

What about the TGI [16] of the same molecule?
The TGI was over 200 µM.

And the TGI [17]?
Its TGI is over 200 µM.

What about the TGI [18] of the same molecule?
The TGI was over 200 µM.

What about the TGI [19] of the same molecule?
The TGI was over 200 µM.

And the TGI [20]?
Its TGI is over 200 µM.

And the TGI [21]?
Its TGI is over 200 µM.

What about the TGI [22] of the same molecule?
Its TGI is over 200 µM.

What about the TGI [23] of the same molecule?
The TGI was over 200 µM.

What about the TGI [24] of the same molecule?
Its TGI is over 200 µM.

What about the TGI [25] of the same molecule?
The TGI was over 200 µM.

What about the TGI [26] of the same molecule?
The TGI was over 200 µM.

And the TGI [27]?
Its TGI is over 200 µM.

What about the TGI [28] of the same molecule?
Its TGI is over 200 µM.

What about the TGI [29] of the same molecule?
Its TGI is over 200 µM.

And the TGI [30]?
Its TGI is over 200 µM.

And the TGI [31]?
Its TGI is over 200 µM.

And the TGI [32]?
The TGI was over 200 µM.

What about the TGI [33] of the same molecule?
Its TGI is over 200 µM.

And the TGI [34]?
Its TGI is over 200 µM.

And the TGI [35]?
The TGI was over 200 µM.

What about the TGI [36] of the same molecule?
The TGI was over 200 µM.

And the TGI [37]?
Its TGI is over 200 µM.

And the TGI [38]?
Its TGI is over 200 µM.

What about the TGI [39] of the same molecule?
The TGI was over 200 µM.

What about the TGI [40] of the same molecule?
Its TGI is over 200 µM.

What about the TGI [41] of the same molecule?
The TGI was over 200 µM.

And the TGI [42]?
The TGI was over 200 µM.

What about the TGI [43] of the same molecule?
Its TGI is over 200 µM.

What about the TGI [44] of the same molecule?
The TGI was over 200 µM.

What about the TGI [45] of the same molecule?
Its TGI is over 200 µM.

And the TGI [46]?
The TGI was over 200 µM.

What about the TGI [47] of the same molecule?
Its TGI is over 200 µM.

What about the TGI [48] of the same molecule?
The TGI was over 200 µM.

And the TGI [49]?
Its TGI is over 200 µM.

And the TGI [50]?
Its TGI is over 200 µM.

What about the TGI [51] of the same molecule?
The TGI was over 200 µM.

What about the TGI [52] of the same molecule?
The TGI was over 200 µM.

What about the TGI [53] of the same molecule?
Its TGI is over 200 µM.

What about the TGI [54] of the same molecule?
Its TGI is over 200 µM.

What about the TGI [55] of the same molecule?
Its TGI is over 200 µM.

What about the TGI [56] of the same molecule?
The TGI was over 200 µM.

What about the TGI [57] of the same molecule?
The TGI was over 200 µM.

And the TGI [58]?
Its TGI is over 200 µM.

For `O=C(OCCN=c1c2ccccc2ccc2ccccc12)c1cc([N+](=O)[O-])cc([N+](=O)[O-])c1`, which TGI [1] is on record?
The TGI was over 100 µM.

What about the TGI [3] of the same molecule?
The TGI was over 100 µM.

What about the TGI [4] of the same molecule?
The TGI was over 100 µM.

What about the TGI [5] of the same molecule?
Its TGI is over 100 µM.

What about the TGI [6] of the same molecule?
Its TGI is over 100 µM.

What about the TGI [7] of the same molecule?
The TGI was over 100 µM.

What about the TGI [8] of the same molecule?
The TGI was over 100 µM.

What about the TGI [9] of the same molecule?
The TGI was over 100 µM.

What about the TGI [10] of the same molecule?
The TGI was over 100 µM.

What about the TGI [12] of the same molecule?
Its TGI is over 100 µM.

And the TGI [13]?
Its TGI is over 100 µM.

What about the TGI [14] of the same molecule?
Its TGI is over 100 µM.

And the TGI [15]?
Its TGI is over 100 µM.

What about the TGI [16] of the same molecule?
Its TGI is over 100 µM.

What about the TGI [17] of the same molecule?
Its TGI is over 100 µM.

What about the TGI [18] of the same molecule?
Its TGI is over 100 µM.

And the TGI [19]?
Its TGI is over 100 µM.

And the TGI [20]?
The TGI was over 100 µM.

And the TGI [21]?
Its TGI is over 100 µM.

What about the TGI [22] of the same molecule?
Its TGI is over 100 µM.

And the TGI [23]?
Its TGI is over 100 µM.

And the TGI [24]?
The TGI was 66.2 µM.

And the TGI [25]?
Its TGI is over 100 µM.

What about the TGI [26] of the same molecule?
The TGI was over 100 µM.

What about the TGI [27] of the same molecule?
The TGI was over 100 µM.

What about the TGI [28] of the same molecule?
The TGI was over 100 µM.

And the TGI [29]?
The TGI was over 100 µM.

And the TGI [30]?
Its TGI is over 100 µM.

What about the TGI [31] of the same molecule?
Its TGI is over 100 µM.

And the TGI [32]?
Its TGI is over 100 µM.

What about the TGI [34] of the same molecule?
Its TGI is over 100 µM.

What about the TGI [35] of the same molecule?
Its TGI is over 100 µM.

And the TGI [36]?
Its TGI is over 100 µM.

What about the TGI [37] of the same molecule?
Its TGI is over 100 µM.

And the TGI [38]?
The TGI was over 100 µM.

And the TGI [39]?
Its TGI is over 100 µM.

What about the TGI [40] of the same molecule?
Its TGI is over 100 µM.

And the TGI [41]?
The TGI was over 100 µM.

What about the TGI [42] of the same molecule?
Its TGI is over 100 µM.

And the TGI [43]?
Its TGI is over 100 µM.

And the TGI [44]?
Its TGI is over 100 µM.

What about the TGI [45] of the same molecule?
Its TGI is over 100 µM.

What about the TGI [46] of the same molecule?
Its TGI is over 100 µM.

And the TGI [47]?
Its TGI is over 100 µM.

What about the TGI [48] of the same molecule?
Its TGI is over 100 µM.

And the TGI [49]?
The TGI was over 100 µM.

What about the TGI [50] of the same molecule?
Its TGI is over 100 µM.

What about the TGI [51] of the same molecule?
Its TGI is over 100 µM.

And the TGI [59]?
The TGI was over 100 µM.

And the TGI [52]?
Its TGI is over 100 µM.

And the TGI [53]?
Its TGI is over 100 µM.

What about the TGI [54] of the same molecule?
Its TGI is over 100 µM.

And the TGI [55]?
The TGI was over 100 µM.

What about the TGI [56] of the same molecule?
The TGI was over 100 µM.

And the TGI [57]?
The TGI was over 100 µM.

And the TGI [58]?
The TGI was over 100 µM.
